Results as given in patent US20210085623A1, “Formulation” (Medherant Limited, priority 2017, published 2021).

How the values were obtained:
[1] = Passive release of ibuprofen from pressure sensitive adhesive patch, diffusion cells; details: Nylon membrane, patch without excipients
Text: Prior to determination of active pharmaceutical ingredient (API) diffusion across skin mimicking membranes, a passive release of ibuprofen from the pressure sensitive adhesive must be verified. […] Such an experiment can be performed using non-rate-limiting membranes, for example porous silicone, Nylon or polytetrafluoroethylene (PTFE). In this study, Nylon was employed as the test model for passive release.
All further mentioned patches contain 10 wt % of API. Unless stated otherwise, 6 sample patches were analysed in parallel. […] Experimental conditions are listed below.
Patch components: Pressure sensitive adhesive, ibuprofen, […]. Patch thickness: 300 μm Membrane type: Nylon, pore size 0.45 μm Apparatus: diffusion cells Acceptor medium: mixture of pH 7.4 PBS/2-(2-ethoxyethoxy) ethanol (90/10 vol.) […]

[2] = Permeation of ibuprofen from patches through Strat-M membranes, diffusion cells; type: in vitro ADME; details: Strat-M membrane, patch without excipients
Text: In order to determine the necessity for further modification of ibuprofen patches with excipients, permeation rates of the API were observed using Strat-M membranes. Strat-M membranes are produced by Merck Millipore as a synthetic transdermal diffusion model to avoid animal or human skin testing. There is a correlation tool on a dedicated website allowing a comparison with human skin. Permeation profiles can vary depending on a drug, but it proves that Strat-M membranes can be employed as a reliable evaluation of any transdermal system in terms of human skin penetration. It must be said that penetration profiles in the case of human skin may differ from the aforementioned membrane, but allows predicting the efficacy of patches with certain reliability.
Patches tested in this study are from the same batch as employed in release experiments and were run under the same conditions. Permeation profiles and release profiles of ibuprofen through Strat-M membranes are depicted in FIGS. 1 and 2, respectively. […]

Total Released Amount ([1]; 1 h): 227.93 μg cm^−2
Total Released Amount ([1]; 2 h): 438.23 μg cm^−2
Total Released Amount ([1]; 4 h): 726.09 μg cm^−2
Total Released Amount ([1]; 6 h): 967.49 μg cm^−2
Total Released Amount ([1]; 8 h): 1124.13 μg cm^−2
Total Released Amount ([1]; 10 h): 1257.46 μg cm^−2
Total Released Amount ([1]; 12 h): 1397.34 μg cm^−2
Total Released Amount ([1]; 24 h): 1650.21 μg cm^−2
Flux ([2]; 1 h): 1.29 μg cm^−2 h^−1
Total Amount ([2]; 1 h): 1.291 μg cm^−2
Flux ([2]; 2 h): 2.75 μg cm^−2 h^−1
Total Amount ([2]; 2 h): 4.044 μg cm^−2
Flux ([2]; 4 h): 2.71 μg cm^−2 h^−1
Total Amount ([2]; 4 h): 9.466 μg cm^−2
Flux ([2]; 6 h): 3.56 μg cm^−2 h^−1
Total Amount ([2]; 6 h): 16.595 μg cm^−2
Flux ([2]; 8 h): 3.91 μg cm^−2 h^−1
Total Amount ([2]; 8 h): 24.424 μg cm^−2
Flux ([2]; 10 h): 5.82 μg cm^−2 h^−1
Total Amount ([2]; 10 h): 36.066 μg cm^−2
Flux ([2]; 12 h): 6.92 μg cm^−2 h^−1
Total Amount ([2]; 12 h): 49.915 μg cm^−2
Flux ([2]; 24 h): 4.96 μg cm^−2 h^−1
Total Amount ([2]; 24 h): 109.467 μg cm^−2
SMILES: CC(C)Cc1ccc(C(C)C(=O)O)cc1 (stereo not drawn) [ibuprofen]
